This passage reports EC50 results from patent US10414811B2, “Protease-resistant lipidated GLP-1 analogs” (MEDIMMUNE LIMITED, priority 2015, dated 2019).

What all share (type): cell-based
Test [1] deals with T1, human GLP-1 receptor (GLP-1R) (Homo sapiens, UniProt P43220).
T1 construct: expressed in transfected cells
The test is described as follows: cAMP assay, human GLP-1R cells. A digest of the protocol: (§1)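 Peptide-stimulated cAMP measured by two-step HTRF after a 30 min room-temperature incubation with receptor-expressing cells (hGLP-1R, hGIPR at 1×10^5 cells/ml; hGCGR at 2×10^5 cells/ml). Duplicate dilutions; EC50 from 4-parameter logistic fit of % Delta F.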
A general note: Changes in cAMP serve as a functional read-out for many G protein-coupled receptors.

Test [2] deals with T2, human glucagon receptor (GCGR) (Homo sapiens, UniProt P47871).
T2 construct: expressed in transfected cells
The test is described as follows: cAMP assay, human GCGR cells. The procedure, abridged:
as §1

In test [3] the target is T3, human glucose-dependent insulinotropic peptide receptor (GIPR) (Homo sapiens, UniProt P48546).
T3 construct: expressed in transfected cells
T3 sequence (P48546 22-466): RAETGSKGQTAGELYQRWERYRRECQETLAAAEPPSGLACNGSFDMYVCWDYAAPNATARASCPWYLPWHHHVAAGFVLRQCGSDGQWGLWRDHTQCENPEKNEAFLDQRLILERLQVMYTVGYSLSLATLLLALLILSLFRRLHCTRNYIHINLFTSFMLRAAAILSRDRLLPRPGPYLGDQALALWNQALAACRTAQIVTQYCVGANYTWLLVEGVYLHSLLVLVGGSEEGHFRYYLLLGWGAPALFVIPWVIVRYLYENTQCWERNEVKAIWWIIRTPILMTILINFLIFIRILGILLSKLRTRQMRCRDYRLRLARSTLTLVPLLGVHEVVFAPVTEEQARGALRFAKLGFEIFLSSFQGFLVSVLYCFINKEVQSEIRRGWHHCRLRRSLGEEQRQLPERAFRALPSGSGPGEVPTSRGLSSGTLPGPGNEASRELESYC
Description: cAMP assay, human GIPR cells. The procedure, abridged:
as §1

The mark [4] stands for this setting: cAMP assay, first determination (n1), read-out: Primary assay EC50 GLP-1R n1.
[5] abbreviates: cAMP assay, second determination (n2), read-out: Primary assay EC50 GLP-1R n2.
Setting [6] is: mean of n1 and n2, read-out: Mean pM GLP-1R.
The mark [7] stands for this setting: cAMP assay, first determination (n1), read-out: Primary assay EC50 Gluc-R (n1).
Where [8] appears, read: cAMP assay, second determination (n2), read-out: Primary assay EC50 Gluc-R (n2).
The mark [9] stands for this setting: cAMP assay, first determination (n1), read-out: Primary assay EC50 GIP-R (n1).
[10] abbreviates: cAMP assay, second determination (n2), read-out: Primary assay EC50 GIP-R (n2).

Like-named read-outs stand apart in the source and are kept apart here. Numbered stars: 1 amine (or outer) side, 2 acyl side, 3 side chain; on linkers, the order of the positions; unused ones are H or OH. Square brackets hold non-standard residues; d marks the D form. Side chains are listed from the residue outwards. Peptide text beside a SMILES is read from it. * marks the point of attachment. C18 diacid = O=C(O)CCCCCCCCCCCCCCCCC(=O)*; γGlu = O=C(O)[C@H](CCC(=O)[*:2])N[*:1]; Palmitoyl = CCCCCCCCCCCCCCCC(=O)*; αMeF = C[C@](N)(Cc1ccccc1)C(=O)O; αMeK = C[C@](N)(CCCCN)C(=O)O; αMeS = C[C@](N)(CO)C(=O)O; AEEA = NCCOCCOCC(=O)O; Aib = CC(C)(N)C(=O)O

T2 sequence (P47871 26-477): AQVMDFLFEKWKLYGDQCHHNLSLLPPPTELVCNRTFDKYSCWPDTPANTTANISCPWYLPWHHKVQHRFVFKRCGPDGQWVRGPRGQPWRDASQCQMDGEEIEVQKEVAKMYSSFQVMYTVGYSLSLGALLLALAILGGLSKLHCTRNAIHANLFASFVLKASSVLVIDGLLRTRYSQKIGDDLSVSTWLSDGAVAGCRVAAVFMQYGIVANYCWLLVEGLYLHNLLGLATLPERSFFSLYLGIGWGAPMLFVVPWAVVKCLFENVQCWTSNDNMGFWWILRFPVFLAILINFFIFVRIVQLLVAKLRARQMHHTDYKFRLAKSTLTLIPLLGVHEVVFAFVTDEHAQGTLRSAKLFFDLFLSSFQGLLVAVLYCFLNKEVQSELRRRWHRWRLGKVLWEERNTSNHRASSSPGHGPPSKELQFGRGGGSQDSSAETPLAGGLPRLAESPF
T1 sequence (P43220 24-463): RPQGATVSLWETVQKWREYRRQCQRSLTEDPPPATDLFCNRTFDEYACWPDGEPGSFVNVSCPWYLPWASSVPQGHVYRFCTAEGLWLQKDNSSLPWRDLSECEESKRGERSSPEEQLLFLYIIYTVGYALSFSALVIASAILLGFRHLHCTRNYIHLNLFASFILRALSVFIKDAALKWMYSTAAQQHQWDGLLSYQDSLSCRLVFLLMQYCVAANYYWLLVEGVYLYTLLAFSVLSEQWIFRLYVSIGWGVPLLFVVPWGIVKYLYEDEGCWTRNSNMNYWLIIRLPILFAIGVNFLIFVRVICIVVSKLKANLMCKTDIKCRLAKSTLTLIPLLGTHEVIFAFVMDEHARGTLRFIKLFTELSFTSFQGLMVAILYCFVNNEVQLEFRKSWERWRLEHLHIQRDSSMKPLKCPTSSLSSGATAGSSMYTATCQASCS

In the case of `CC[C@H](C)[C@H](NC(=O)[C@](C)(Cc1ccccc1)NC(=O)[C@H](CCC(=O)O)NC(=O)[C@H](CCCCN)NC(=O)[C@H](C)NC(=O)[C@H](C)NC(=O)[C@H](CCC(=O)O)NC(=O)CNC(=O)[C@H](CCC(=O)O)NC(=O)[C@H](CC(C)C)NC(=O)[C@](C)(Cc1ccccc1)NC(=O)[C@H](CO)NC(=O)[C@H](CO)NC(=O)[C@@H](NC(=O)[C@H](CC(=O)O)NC(=O)[C@H](CO)NC(=O)[C@@H](NC(=O)[C@](C)(Cc1ccccc1)NC(=O)[C@H](CO)NC(=O)CNC(=O)[C@H](CCC(=O)O)NC(=O)C(C)(C)NC(=O)[C@@H](N)Cc1c[nH]cn1)[C@@H](C)O)C(C)C)C(=O)N[C@@H](C)C(=O)N[C@@](C)(Cc1ccccc1)C(=O)N[C@H](C(=O)N[C@H](C(=O)N[C@@H](CCCCN)C(=O)NCC(=O)NCC(=O)N[C@@H](CCCCNC(=O)COCCOCCNC(=O)COCCOCCNC(=O)CC[C@H](NC(=O)CCCCCCCCCCCCCCCCC(=O)O)C(=O)O)C(N)=O)C(C)C)C(C)C` [compound 38], the EC50 in test [1] (setting [4]) came out at 62 pM; in test [1] (setting [5]) it was 82 pM; in test [1] (setting [6]), 72 pM; in test [2] (setting [7]) it was 25 nM; in test [2] (setting [8]), 25 nM; in test [3] (setting [9]), 25 nM. For the same compound, in test [3] (setting [10]), the EC50 worked out at 25 nM.
For `CCCCCCCCCCCCCCCC(=O)N[C@@H](CCC(=O)NCCCC[C@H](NC(=O)[C@@H](NC(=O)[C@](C)(Cc1ccccc1)NC(=O)[C@H](CO)NC(=O)CNC(=O)[C@H](CCC(=O)O)NC(=O)C(C)(C)NC(=O)[C@@H](N)Cc1c[nH]cn1)[C@@H](C)O)C(=O)N[C@@H](CC(=O)O)C(=O)N[C@H](C(=O)N[C@@](C)(CO)C(=O)N[C@@H](CO)C(=O)N[C@@](C)(Cc1ccccc1)C(=O)N[C@@H](CC(C)C)C(=O)N[C@@H](CCC(=O)O)C(=O)NCC(=O)N[C@@H](CCC(=O)O)C(=O)N[C@@H](C)C(=O)N[C@@H](C)C(=O)N[C@@](C)(CCCCN)C(=O)N[C@@H](CCC(=O)O)C(=O)N[C@@](C)(Cc1ccccc1)C(=O)N[C@H](C(=O)N[C@@H](C)C(=O)N[C@@](C)(Cc1ccccc1)C(=O)N[C@H](C(=O)N[C@H](C(=O)N[C@@](C)(CCCCN)C(=O)NCC(=O)NCC(N)=O)C(C)C)C(C)C)[C@@H](C)CC)C(C)C)C(=O)O` [compound 92] (H-H[Aib]EGS[αMeF]TK([γGlu-Palmitoyl])DV[αMeS]S[αMeF]LEGEAA[αMeK]E[αMeF]IA[αMeF]VV[αMeK]GG-NH2; N-terminus assumed), the EC50 was 450 pM in test [1] (setting [4]); 390 pM in test [1] (setting [5]); 423 pM in test [1] (setting [6]); at least 28 nM in test [2] (setting [7]); at least 28 nM in test [2] (setting [8]); at least 28 nM in test [3] (setting [9]). The EC50 in test [3] (setting [10]) is at least 28 nM.
Take `CC[C@H](C)[C@H](NC(=O)[C@](C)(Cc1ccccc1)NC(=O)[C@H](CCC(=O)O)NC(=O)[C@](C)(CCCCN)NC(=O)[C@H](C)NC(=O)[C@H](C)NC(=O)[C@H](CCC(=O)O)NC(=O)CNC(=O)[C@H](CCC(=O)O)NC(=O)[C@H](CC(C)C)NC(=O)[C@](C)(Cc1ccccc1)NC(=O)[C@H](CO)NC(=O)[C@H](CO)NC(=O)[C@@H](NC(=O)[C@H](CC(=O)O)NC(=O)[C@H](CO)NC(=O)[C@H](CO)NC(=O)[C@](C)(Cc1ccccc1)NC(=O)[C@H](CO)NC(=O)CNC(=O)[C@H](CCC(=O)O)NC(=O)C(C)(C)NC(=O)[C@@H](N)Cc1c[nH]cn1)C(C)C)C(=O)N[C@@H](C)C(=O)N[C@@](C)(Cc1ccccc1)C(=O)N[C@H](C(=O)N[C@H](C(=O)N[C@@](C)(CCCCN)C(=O)NCC(=O)NCC(N)=O)C(C)C)C(C)C` [compound 8] (H-H[Aib]EGS[αMeF]SSDVSS[αMeF]LEGEAA[αMeK]E[αMeF]IA[αMeF]VV[αMeK]GG-NH2; N-terminus assumed): the EC50 in test [1] (setting [4]) was 71 pM; in test [1] (setting [5]), 110 pM; in test [1] (setting [6]) it was 88 pM; in test [2] (setting [7]) it was 7.8 nM; in test [2] (setting [8]), 12 nM; in test [3] (setting [9]), 23 nM. Moreover, the EC50 in test [3] (setting [10]) amounted to 23 nM.
Regarding `CC[C@H](C)[C@H](NC(=O)[C@](C)(Cc1ccccc1)NC(=O)[C@H](CCC(=O)O)NC(=O)[C@H](CCCCNC(=O)CCCCCNC(=O)CCCCCNC(=O)CCCCCNC(=O)CCCCCCCCCCCOc1ccc(C(=O)O)cc1)NC(=O)[C@H](C)NC(=O)[C@H](C)NC(=O)[C@H](CCC(=O)O)NC(=O)CNC(=O)[C@H](CCC(=O)O)NC(=O)[C@H](CC(C)C)NC(=O)[C@](C)(Cc1ccccc1)NC(=O)[C@H](CO)NC(=O)[C@](C)(CO)NC(=O)[C@@H](NC(=O)[C@H](CC(=O)O)NC(=O)[C@H](CO)NC(=O)[C@@H](NC(=O)[C@](C)(Cc1ccccc1)NC(=O)[C@H](CO)NC(=O)CNC(=O)[C@H](CCC(=O)O)NC(=O)C(C)(C)NC(=O)[C@@H](N)Cc1c[nH]cn1)[C@@H](C)O)C(C)C)C(=O)N[C@@H](C)C(=O)N[C@@](C)(Cc1ccccc1)C(=O)N[C@H](C(=O)N[C@H](C(=O)N[C@@](C)(CCCCN)C(=O)NCC(=O)NCC(N)=O)C(C)C)C(C)C` [compound 142], the EC50 is 12 pM in test [1] (setting [4]); 7.9 pM in test [1] (setting [5]); 10.1 pM in test [1] (setting [6]); at least 26 nM in test [2] (Primary assay EC50 Gluc-R (n1), cAMP assay, first determination (n1)); at least 26 nM in test [2] (read-out: Primary assay EC50 Gluc-R (n2), cAMP assay, second determination (n2)); at least 26 nM in test [3] (Primary assay EC50 GIP-R (n1), cAMP assay, first determination (n1)). The EC50 in test [3] (read-out: Primary assay EC50 GIP-R (n2), cAMP assay, second determination (n2)) is at least 26 nM.
Regarding `CC[C@H](C)[C@H](NC(=O)[C@](C)(Cc1ccccc1)NC(=O)[C@H](CCC(=O)O)NC(=O)[C@](C)(CCCCN)NC(=O)[C@H](C)NC(=O)[C@H](C)NC(=O)[C@H](CCC(=O)O)NC(=O)CNC(=O)[C@H](CCC(=O)O)NC(=O)[C@H](CC(C)C)NC(=O)[C@](C)(Cc1ccccc1)NC(=O)[C@H](CO)NC(=O)[C@](C)(CO)NC(=O)[C@@H](NC(=O)[C@H](CC(=O)O)NC(=O)[C@H](CO)NC(=O)[C@@H](NC(=O)[C@](C)(Cc1ccccc1)NC(=O)[C@H](CCCCNC(=O)COCCOCCNC(=O)COCCOCCNC(=O)CC[C@H](NC(=O)CCCCCCCCCCCCCCCCC(=O)O)C(=O)O)NC(=O)CNC(=O)[C@H](CCC(=O)O)NC(=O)C(C)(C)NC(=O)[C@@H](N)Cc1c[nH]cn1)[C@@H](C)O)C(C)C)C(=O)N[C@@H](C)C(=O)N[C@@](C)(Cc1ccccc1)C(=O)N[C@H](C(=O)N[C@H](C(=O)N[C@@](C)(CCCCN)C(=O)NCC(=O)NCC(N)=O)C(C)C)C(C)C` [compound 124] (H-H[Aib]EGK([AEEA-AEEA-γGlu-C18 diacid])[αMeF]TSDV[αMeS]S[αMeF]LEGEAA[αMeK]E[αMeF]IA[αMeF]VV[αMeK]GG-NH2; N-terminus assumed), the EC50 in test [1] (setting [4]) is at least 25000 pM; in test [1] (setting [5]) it was at least 25100 pM; in test [1] (setting [6]) it was at least 25100 pM; in test [2] (setting [7]) it was at least 25 nM; in test [2] (setting [8]), at least 25.1 nM; in test [3] (setting [9]) it was at least 25 nM. Also, the EC50 in test [3] (setting [10]) was at least 25.1 nM.
With `CC[C@H](C)[C@H](NC(=O)[C@](C)(Cc1ccccc1)NC(=O)[C@H](CCC(=O)O)NC(=O)[C@](C)(CCCCN)NC(=O)[C@H](C)NC(=O)[C@H](C)NC(=O)[C@H](CCC(=O)O)NC(=O)CNC(=O)[C@H](CCC(=O)O)NC(=O)[C@H](CC(C)C)NC(=O)[C@](C)(Cc1ccccc1)NC(=O)[C@H](CO)NC(=O)[C@](C)(CO)NC(=O)[C@@H](NC(=O)[C@H](CC(=O)O)NC(=O)[C@H](CO)NC(=O)[C@@H](NC(=O)[C@](C)(Cc1ccccc1)NC(=O)[C@H](CO)NC(=O)CNC(=O)[C@H](CCC(=O)O)NC(=O)C(C)(C)NC(=O)[C@@H](N)Cc1c[nH]cn1)[C@@H](C)O)C(C)C)C(=O)N[C@@H](C)C(=O)N[C@@](C)(Cc1ccccc1)C(=O)N[C@H](C(=O)N[C@H](C(=O)N[C@@H](CCCCNC(=O)CC[C@H](NC(=O)CCCCCCCCCCCCCCCCC(=O)O)C(=O)O)C(=O)NCC(=O)NCC(N)=O)C(C)C)C(C)C` [compound 191], the EC50 is 250 pM in test [1] (first run (n1), cAMP activity, read-out: Primary assay EC50 GLP-1R n1); 182 pM in test [1] (setting [6]); 110 pM in test [1] (second run (n2), cAMP activity, read-out: Primary assay EC50 GLP-1R n2); at least 28 nM in test [2] (first run (n1), cAMP activity of substituted and mono-lipidated peptides, read-out: Primary assay EC50 Gluc-R); at least 28 nM in test [2] (second run (n2), cAMP activity, read-out: Primary assay EC50 Gluc-R); at least 28 nM in test [3] (first run (n1), cAMP activity, read-out: Primary assay EC50 GIP-R). In addition, the EC50 in test [3] (second run (n2), cAMP activity, read-out: Primary assay EC50 GIP-R) is at least 28 nM.
